Series [1] addresses T1, X-box-binding protein 1 (Homo sapiens) (UniProt P17861).
T1 sequence (whole entry): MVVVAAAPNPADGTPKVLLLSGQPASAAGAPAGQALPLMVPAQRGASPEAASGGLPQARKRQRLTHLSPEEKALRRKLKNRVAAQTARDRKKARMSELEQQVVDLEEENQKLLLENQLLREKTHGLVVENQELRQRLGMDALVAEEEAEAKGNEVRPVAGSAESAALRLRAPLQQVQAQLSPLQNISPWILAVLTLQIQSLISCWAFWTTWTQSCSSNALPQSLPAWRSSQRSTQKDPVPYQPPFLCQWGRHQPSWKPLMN
The experiment in a line: Transactivation of XBP1 (unknown origin) transfected in rat IEC-6 cells at 10 uM after 48 hrs by dual luciferase reporter gene assay. Type of series: cell-based.

Series [2] is filed under the species Mus musculus. Briefly: Anti-ulcerative colitis activity in DSS-induced acute C57Bl/6J mouse ulcerative colitis model. Type of series: functional, organism-based.
A short description of series [3]: Cytotoxicity against rat IEC-6 cells assessed as cell survival at 10 uM after 24 to 72 hrs by MTT assay. Type of series: cell-based. As to conditions: iec-6, 10 µM.
The species named for series [4] is Mus musculus. Briefly: Toxicity in C57Bl/6J mouse. Type of series: organism-based. The note with it: in vivo.
Series [5] deals with Mus musculus. Briefly: Anti-ulcerative colitis activity in DSS-induced acute C57Bl/6J mouse ulcerative colitis model assessed as colon macroscopic damage index at 300 mg/kg, po qd measured on day 8 (reference value: 5.69 +/- 1.12). It is filed as functional.
Series [6] concerns Mus musculus. The experiment in a line: Anti-ulcerative colitis activity in DSS-induced acute C57Bl/6J mouse ulcerative colitis model assessed as inhibition rate of disease activity index at 300 mg/kg, po qd measured on day 8 relative to control. Type of series: functional. As to conditions: 192 h.
The test system of series [7] is Mus musculus. The experiment in a line: Anti-ulcerative colitis activity in DSS-induced acute C57Bl/6J mouse ulcerative colitis model assessed as improvement in colon contracture at 300 mg/kg, po qd measured on day 8 (reference value: 41.8%). Type of series: functional.
Series [8] relates to Mus musculus. The experiment in a line: Toxicity in DSS-induced acute C57Bl/6J mouse ulcerative colitis model assessed as change in body weight at 300 mg/kg, po qd (reference value: -15.3%). As to conditions: in vivo. It is filed as organism-based.
Series [9] relates to Mus musculus. Briefly: Anti-ulcerative colitis activity in DSS-induced acute C57Bl/6J mouse ulcerative colitis model assessed as recovery of each muscle layer structure at 300 mg/kg, po qd measured on day 8. Type of series: functional, organism-based.
Series [10] deals with Mus musculus. The experiment in a line: Anti-ulcerative colitis activity in DSS-induced acute C57Bl/6J mouse ulcerative colitis model assessed as improvement in number of visible colitis lesions at 300 mg/kg, po qd measured on day 8. Type of series: functional, organism-based.
Series [11] has as its system Mus musculus. Briefly: Anti-ulcerative colitis activity in DSS-induced acute C57Bl/6J mouse ulcerative colitis model assessed as improvement in colon contracture at 200 mg/kg, po qd measured on day 8 (reference value: 41.8%). It is filed as functional.
For series [12], the target named is T1, X-box-binding protein 1 (Homo sapiens). Briefly: Transactivation of XBP1 (unknown origin) transfected in rat IEC-6 cells at 10 uM after 48 hrs by dual luciferase reporter gene assay relative to con 2. It is filed as cell-based. (A reporter such as luciferase makes a cellular process visible.)
The test system of series [13] is Mus musculus. Briefly: Toxicity in DSS-induced acute C57Bl/6J mouse ulcerative colitis model assessed as change in body weight at 200 mg/kg, po qd (reference value: -15.3%). It is filed as organism-based. As to conditions: in vivo.
Series [14] has as its system Mus musculus. The experiment in a line: Anti-ulcerative colitis activity in DSS-induced acute C57Bl/6J mouse ulcerative colitis model assessed as inhibition rate of disease activity index at 50 mg/kg, po qd measured on day 8 relative to control. It is filed as functional. As to conditions: 192 h.
For series [15], the system named is Mus musculus. The experiment in a line: Anti-ulcerative colitis activity in po dosed DSS-induced acute C57Bl/6J mouse ulcerative colitis model assessed as inhibition rate of disease activity index administered as qd measured on day 8. It is filed as functional, organism-based.
The subject of series [16] is Mus musculus. The experiment in a line: Toxicity in DSS-induced acute C57Bl/6J mouse ulcerative colitis model assessed as change in body weight at 50 mg/kg, po qd (reference value: -15.3%). Type of series: organism-based. The note with it: in vivo.
In series [17] the test system is Mus musculus. The experiment in a line: Toxicity in DSS-induced acute C57Bl/6J mouse ulcerative colitis model assessed as change in body weight at 100 mg/kg, po qd (reference value: -15.3%). It is filed as organism-based. The note with it: in vivo.
For series [18], the system named is Mus musculus. The experiment in a line: Anti-ulcerative colitis activity in DSS-induced acute C57Bl/6J mouse ulcerative colitis model assessed as improvement in colon contracture at 100 mg/kg, po qd measured on day 8 (reference value: 41.8%). It is filed as functional.
For series [19], the system named is Mus musculus. Briefly: Anti-ulcerative colitis activity in DSS-induced acute C57Bl/6J mouse ulcerative colitis model assessed as inhibition rate of disease activity index at 200 mg/kg, po qd measured on day 8 relative to control. Type of series: functional. As to conditions: 192 h.
Series [20] deals with Mus musculus. The experiment in a line: Anti-ulcerative colitis activity in DSS-induced acute C57Bl/6J mouse ulcerative colitis model assessed as improvement in colon contracture at 50 mg/kg, po qd measured on day 8 (reference value: 41.8%). Type of series: functional.
Series [21] relates to Mus musculus. The experiment in a line: Anti-ulcerative colitis activity in DSS-induced acute C57Bl/6J mouse ulcerative colitis model assessed as inhibition rate of disease activity index at 100 mg/kg, po qd measured on day 8 relative to control. It is filed as functional. As to conditions: 192 h.

Each structure is given as a SMILES string. Activity calls are given as the source filed them. The calls are words filed in the database; no cut-off is given here.

For `C=C(C(=O)C(C)C)c1c2c3c(ccc2c(C)c2[n+]1CCc1cc4c(cc1-2)OCO4)OCO3`, the outcome in series [1] was inactive.

As for `Cc1c2[n+](cc3c4c(ccc13)OCO4)CCc1cc3c(cc1-2)OCO3`, the result in series [2] was inactive. In series [1], the outcome was Active.

On to `C=C(C(=O)C(C)(C)C)c1c2c3c(ccc2c(C)c2[n+]1CCc1cc4c(cc1-2)OCO4)OCO3`, for which, in [1], the result was inactive.

With `c1cc2c(c3c1CC1c4cc5c(cc4CCN1C3)OCO5)OCO2` (centres undefined), the outcome in series [2] was inactive.

On to `FC(F)(F)c1cccc(Cc2c3[n+](cc4c5c(ccc24)OCO5)CCc2cc4c(cc2-3)OCO4)c1.[Cl-]`, for which the Activity entry in [3] is “Toxic”.

As to `C=C(C(=O)CCC)c1c2c3c(ccc2c(C)c2[n+]1CCc1cc4c(cc1-2)OCO4)OCO3`, the outcome in series [1] was inactive.

As for `FC(F)(F)c1cccc(CC2=C3c4cc5c(cc4CCN3Cc3c2ccc2c3OCO2)OCO5)c1`, in [1], the outcome was Active.

In the case of `Fc1ccccc1Cc1c2[n+](cc3c4c(ccc13)OCO4)CCc1cc3c(cc1-2)OCO3`, the outcome in series [2] was inactive. Further, the result in series [1] was Active.

With `Fc1ccc(CC2=C3c4cc5c(cc4CCN3Cc3c2ccc2c3OCO2)OCO5)cc1`, the result in series [1] was Active.

Consider `Fc1ccccc1CC1=C2c3cc4c(cc3CCN2Cc2c1ccc1c2OCO1)OCO4`, for which the outcome in [1] was Active.

For the compound `Cc1ccc(Cc2c3[n+](cc4c5c(ccc24)OCO5)CCc2cc4c(cc2-3)OCO4)cc1.[Cl-]`, the Activity result in series [3] is recorded as “Toxic”.

With `Fc1ccc(Cc2c3[n+](cc4c5c(ccc24)OCO5)CCc2cc4c(cc2-3)OCO4)cc1`, the outcome in [2] was inactive. For the same compound, in series [1], the result was Active.

As for `O=c1c2c3c(ccc2cc2n1CCc1cc4c(cc1-2)OCO4)OCO3`, in series [2], the outcome was inactive. For the same compound, in series [1], the result was Active.

For the compound `N#CC1c2c(ccc3c2OCO3)C=C2c3cc4c(cc3CCN21)OCO4` (racemic), in series [1], the outcome was Active. In addition, the Activity entry in [4] was “Toxic”.

As for `CC1=C2c3cc4c(cc3CCN2Cc2c1ccc1c2OCO1)OCO4`, in series [2], the outcome was inactive. Also, the outcome in series [1] was Active.

`COc1ccc(Cc2c3[n+](cc4c5c(ccc24)OCO5)CCc2cc4c(cc2-3)OCO4)cc1`: in [2], the result was inactive. Further, in series [1], the result was Active.

Consider `C1=CC2CC=CCN2CC1` (centres undefined), for which, in [1], the outcome was Active.

Take `N#Cc1ccc(Cc2c3[n+](cc4c5c(ccc24)OCO5)CCc2cc4c(cc2-3)OCO4)cc1`: the outcome in series [2] was inactive. Besides, the outcome in [1] was Active.

For the compound `C=C(C(=O)CCCC)c1c2c3c(ccc2c(C)c2[n+]1CCc1cc4c(cc1-2)OCO4)OCO3`, the result in series [1] was inactive.

On to `Fc1cccc(CC2=C3c4cc5c(cc4CCN3Cc3c2ccc2c3OCO2)OCO5)c1`, for which the result in series [1] was Active.

On to `N#Cc1ccc(CC2=C3c4cc5c(cc4CCN3Cc3c2ccc2c3OCO2)OCO5)cc1`, for which the result in [1] was Active.

In the case of `C=C(C(=O)c1ccc(OC)cc1)c1c2c3c(ccc2c(C)c2[n+]1CCc1cc4c(cc1-2)OCO4)OCO3`, in series [1], the result was inactive.

Regarding `O=C(O)c1cc(/N=N/c2ccc(S(=O)(=O)Nc3ccccn3)cc2)ccc1O` [SULFASALAZINE], the Activity_index in [5] amounted to 3.98. In addition, in [6], the inhibition in vivo at 300 mg/kg worked out at 30.6%. The Activity in series [7] is on record as 30%; in [8], -8.42%. Further, the outcome in series [9] and in series [10] was Active.

With `Fc1cccc(Cc2c3[n+](cc4c5c(ccc24)OCO5)CCc2cc4c(cc2-3)OCO4)c1`, the outcome in [2] was inactive. Further, in series [1], the outcome was Active.

As for `Fc1ccc(CC2=C3c4cc5c(cc4CCN3Cc3c2ccc2c3OCO2)OCO5)c(F)c1`, the result in [1] was Active.

For `C=C(C(=O)C1CC1)c1c2c3c(ccc2c(C)c2[n+]1CCc1cc4c(cc1-2)OCO4)OCO3`, the result in [1] was inactive.

Turning to `Cc1ccc(CC2=C3c4cc5c(cc4CCN3Cc3c2ccc2c3OCO2)OCO5)cc1`, the outcome in [1] was Active.

Consider `Fc1ccc(Cc2c3[n+](cc4c5c(ccc24)OCO5)CCc2cc4c(cc2-3)OCO4)c(F)c1`, for which, in series [2], the result was inactive. Further, in series [1], the result was Active.

`COc1ccc(CC2=C3c4cc5c(cc4CCN3Cc3c2ccc2c3OCO2)OCO5)cc1`: the result in series [1] was Active.

On to `C=C(C(=O)CC)c1c2c3c(ccc2c(C)c2[n+]1CCc1cc4c(cc1-2)OCO4)OCO3`, for which the outcome in series [2] was inactive.

As for `C=C(C(=O)c1ccc(CC(C)C)cc1)c1c2c3c(ccc2c(C)c2[n+]1CCc1cc4c(cc1-2)OCO4)OCO3`, the outcome in series [1] was inactive.

Regarding `C=C(C(C)=O)c1c2c3c(ccc2c(C)c2[n+]1CCc1cc4c(cc1-2)OCO4)OCO3`, the result in series [2] was inactive.

For `CC(=O)CC1c2c(ccc3c2OCO3)C=C2c3cc4c(cc3CCN21)OCO4` (racemic), the Activity in series [11] is recorded as 20.4%; in series [13], 3.33%; in [16], -12.9%; in series [17], 3.26%; in [18], 28.8%; in series [20], 38.3%. The compound further showed a fold change (FC) in [12] of 2.06. In series [14], the inhibition in vivo at 50 mg/kg amounted to 36.4%. The inhibition result in series [15] is “Dose-dependent effect”. Also, the result in series [1] was Active. Moreover, the inhibition in vivo at 200 mg/kg in series [19] turned out to be 63.8%. Further, the inhibition in vivo at 100 mg/kg in [21] is 60.3%.

In general, inhibition in vivo refers to the drop in the measured response relative to a control, in per cent.

For the origin of these results see ChEMBL document CHEMBL3611992, “Synthesis and Structure-Activity Relationships of Quaternary Coptisine Derivatives as Potential Anti-ulcerative Colitis Agents” (J Med Chem, 2015).
